Experimental data taken from ChEMBL document CHEMBL1158921, “Antitumor agents, 116. Cytotoxic triterpenes from Maytenus diversifolia” (1990).
Values after ≈ are worked out from the molar mass of the structure shown. Active and inactive are the calls of the source. The rule behind the calls is not given here.

Tests used:
Type in all cases: functional
A549 = assay: Cytotoxicity against human A549 cells; details: for EC50: read-out: ED50 (the source's name)
L1210 = assay: Cytotoxicity against mouse L1210 cells
KB = assay: Cytotoxicity against human KB cells
[1] = read-out: ED50 (the source's name)

`C[C@H]1C(=O)CC[C@@H]2[C@]1(C)CC[C@H]1[C@@]2(C)CC[C@@]2(C)[C@@H]3C[C@](C)(C(=O)O)CC[C@]3(C)CC[C@]12C` [MAYTENOIC ACID] was tested, and the EC50 (A549) was 0.21 µg/mL (≈ 0.46 µM).
In the case of `C[C@H]1C(=O)CC[C@@H]2[C@]1(C)CC[C@H]1[C@@]2(C)CC[C@@]2(C)[C@@H]3CC(C)(C)CC[C@]3(C(=O)O)CC[C@]12C`, the EC50 (A549) is reported as 1.18 µg/mL (≈ 2.58 µM), the EC50 (L1210; [1]) is reported as 2.95 µg/mL (≈ 6.46 µM) and the EC50 (KB; [1]) is reported as 3.7 µg/mL (≈ 8.1 µM).
For `C[C@H]1[C@H](C)CC[C@]2(C(=O)O)CC[C@]3(C)C(=CC[C@@H]4[C@@]5(C)CC[C@H](O)C(C)(C)[C@@H]5CC[C@]43C)[C@H]12`, the Activity (A549) was “Active”, the Activity (L1210) was “Active” and the Activity (KB) was “Active”.
With `C[C@H]1C(=O)CC[C@@H]2[C@]1(C)CC[C@H]1[C@@]2(C)CC[C@@]2(C)[C@@H]3C[C@](C)(CO)CC[C@]3(CO)CC[C@]12C` the EC50 (A549) was 0.64 µg/mL (≈ 1.4 µM).
